Converted amounts (≈) assume the structure as drawn.
Key:
Type in all cases: physicochemical
[1] = Solubility of methocarbamol in different vehicles at various pH conditions
Protocol: Solubility of Methocarbamol was carried out in different vehicles at various pH conditions, and the results are presented in Table 1.

[2] = Drug-excipient compatibility study: related substance; conditions: higher temperature conditions
Protocol: Accurately weighed quantity of methocarbamol, and individual excipients were mixed as per ratio mentioned in the drug-excipient compatibility table. Mixtures were filled in glass vials, plugged using LDPE plugs which were manually punctured.
Filled glass vials were exposed to temperature and humidity conditions i.e. 60° C.±2° C., and 40° C.±2° C./75±5% RH for 4 weeks.

[3] = Photostability study of formulation B3
[4] = API in Protected Condition (Control)

COc1ccccc1OCC(O)COC(N)=O (stereo not drawn) [methocarbamol]
Vol. req. to dissolve 1500 mg API ([1]; 0.1N HCl): 100.00 mL
solubility ([1]; 0.1N HCl, simulated gastric fluid): 15.5 mg/mL (≈ 64.1 mM)
Vol. req. to dissolve 1500 mg API ([1]; Purified water): 98.02 mL
Solubility (conclusion) ([1]; all pH media): high solubility
solubility ([1]; aqueous buffer, pH 4.5 acetate buffer): 16.9 mg/mL (≈ 69.9 mM)
solubility ([1]; aqueous buffer, pH 6.8 phosphate buffer): 14.1 mg/mL (≈ 58.4 mM)
solubility ([1]; aqueous buffer, pH 7.2 phosphate buffer): 13.6 mg/mL (≈ 56.5 mM)
Vol. req. to dissolve 1500 mg API ([1]; pH 4.5 acetate buffer): 88.96 mL
Vol. req. to dissolve 1500 mg API ([1]; pH 6.8 phosphate buffer): 106.38 mL
Vol. req. to dissolve 1500 mg API ([1]; pH 7.2 phosphate buffer): 109.96 mL
solubility ([1]; purified water, water): 15.3 mg/mL (≈ 63.4 mM)
Stability of methocarbamol in aqueous phase [2]: probable instability
Assay (%) [3, 4]: 99.2%
Related Substances: Guaifenesin [3, 4]: 0.01%
Related Substances: Methocarbamol Isomer [3, 4]: 0.01%
Related Substances: Total Impurities [3, 4]: 0.02%
Assay (%) ([3]; API in open Exposed Condition): 99.8%
Related Substances: Guaifenesin ([3]; API in open Exposed Condition): 0.01%
Related Substances: Methocarbamol Isomer ([3]; API in open Exposed Condition): 0.02%
Related Substances: Total Impurities ([3]; API in open Exposed Condition): 0.03%
Assay (%) ([3]; API, Initial): 99.3%
Related Substances: Guaifenesin ([3]; API, Initial): 0.03%
Related Substances: Total Impurities ([3]; API, Initial): 0.03%
Description ([3]; Methocarbamol API (Batch no: A), Initial, open Exposed Condition and Protected Condition (Control)): White Bulky Powder odorless

— patent publication US12390439B2, “Oral liquid formulation of methocarbamol” (Liqmeds Worldwide Limited, priority 2023, dated 2025)
